Measurements: patent US9266835B2, “Quinoline derivatives useful as CB-1 inverse agonists” (JANSSEN PHARMACEUTICA NV, priority 2014, dated 2016)
Structures can show the parent of a compound that is named as a salt.

What was measured:
[1] = target: Human CB1R (Cannabinoid receptor 1) (Homo sapiens (Human), UniProt P21554); assay: CB-1 in vitro cAMP assay (HTRF), inverse agonism; assay type: cell-based; details: mean where tested more than once
Text: (§1) CB1 and CB2 receptors are Gi-coupled GPCR. Activation of CB1 and CB2 receptors results in a decrease in cAMP production. An inverse agonist of the CB1 or CB2 receptor results in the opposite effect, an increase of cAMP production. The principle of this assay is based on HTRF® technology (Homogeneous Time-Resolved Fluorescence). The method is a competitive immunoassay between native cAMP produced by cells and the cAMP labeled with the fluorophore d2. The tracer binding is quantified by a Mab anti-cAMP labeled with Eu3+TBP-NHS Cryptate (supplied as part of the assay kit). The specific signal (i.e. energy transfer) is inversely proportional to the concentration of cAMP in the standard or sample.
(§2) Human CB1R (Cannabinoid receptor 1) was stably transfected in HEK-293 cells (DiscoveRx, cat: 93-0200C1). Human CB2R (Cannabinoid receptor 2) was stably transfected in HEK-293 cells (DiscoveRx, cat: 93-0201C1). Cell cultures were maintained in media: DMEM (Invitrogen Cat#12430-054) supplemented with 10% HI FBS (Invitrogen Cat#16140-071), 1% L-glutamine (Invitrogen Cat#25030-081), 0.2 mg/ml Hygromycin B (Invitrogen Cat#10687-010), 600 μg/mL G418 (Invitrogen Cat#10131-035), and 1X Penn/Strep (Invitrogen 15140-122). After cell expansion, aliquots were cryo-stored in media containing 5% DMSO (Pierce Cat#20684).
(§3) One day prior to experiments media was warmed to 37° C. and the cryo-stored cells were thawed in a 37° C. water bath. The cells were then added to media (10× volume) and the mixture was centrifuged at 1000 RPM for 5 min. The supernate was removed and the cells were re-suspended in media. A sample of the cell suspension was evaluated on a Cedex XS automated cell counter (Innovatis Systems) to determine viable cells/ml. Additional media was added to the cells to achieve a final cell density of 4E5 cells/mL. The cells were then plated into 384 well PDL white solid bottom plates (Greiner, Cat#781945) at 20 μL per well using a Multidrop (Thermo Scientific). Cells were removed from Row P (location of cAMP standards). Two columns of cells were plated into a clear bottom 384 well PDL coated plate (Greiner, Cat#781944) to view confluence the day of the assay. The cell plates were lidded and stored for 15 minutes in a hood, then transferred to an incubator (37° C., 5% CO2, 95% humidity) overnight.
(§4) DMSO was added to all wells of 384 well V bottom polystyrene plate (Greiner, Cat#781280) except to columns 1 and 13, rows 0 and P and wells M13-M23 and N13-N23. Test compounds (60 μL, 10 mM) were added to Column 1 and 13 (A1 through N1 and A13 through L13). Test compounds were serially diluted 1/3 by transferring and mixing 20 μl sample with 40 μL DMSO.
(§5) DMSO (40 μL) was added to wells of 384 well V bottom polystyrene plate: O2 through O11, M14 through M23, N14 through N23, and O14 through O23. AM630 (also known as [6-iodo-2-methyl-1-[2-(4-morpholinyl)ethyl]-1H-indol-3-yl](4-methoxyphenyl)-methanone, Cayman Chemical, Cat#10006974) (60 μL, 10 mM) was added to 01; and 1-(2,4-dichlorophenyl)-7-[(4-fluorophenyl)methylene]-4,5,6,7-tetrahydro-N-1-piperidinyl-1H-indazole-3-carboxamide (60 μL, 10 mM) was added to N13. The control was serially diluted 1/3 by transferring and mixing 20 μl sample with 40 μL DMSO. This process resulted 11 doses per control, 10 mM to […].
(§6) Cells plated the day prior to the assay in clear bottom plates were viewed on an inverse microscope to ensure confluency in the range of 60-75%. […]

[2] = target: Human CB2R (Cannabinoid receptor 2) (Homo sapiens (Human), UniProt P34972); assay: CB-2 in vitro cAMP assay (HTRF), inverse agonism; assay type: cell-based; details: mean where tested more than once
Sequence of Human CB2R (Cannabinoid receptor 2) (P34972 whole entry): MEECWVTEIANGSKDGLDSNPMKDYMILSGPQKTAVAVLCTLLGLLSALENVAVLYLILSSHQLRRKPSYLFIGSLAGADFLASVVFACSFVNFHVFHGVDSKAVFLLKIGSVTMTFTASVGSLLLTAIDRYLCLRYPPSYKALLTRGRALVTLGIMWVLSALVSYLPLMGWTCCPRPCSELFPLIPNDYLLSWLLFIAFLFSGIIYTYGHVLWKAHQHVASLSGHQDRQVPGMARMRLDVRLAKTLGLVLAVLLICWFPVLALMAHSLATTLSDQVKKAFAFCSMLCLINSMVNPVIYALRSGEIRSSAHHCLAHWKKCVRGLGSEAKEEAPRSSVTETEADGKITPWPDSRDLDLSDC
Text: as §1, §2, §3, §4, §5, §6

Sequence of Human CB1R (Cannabinoid receptor 1) (P21554 whole entry): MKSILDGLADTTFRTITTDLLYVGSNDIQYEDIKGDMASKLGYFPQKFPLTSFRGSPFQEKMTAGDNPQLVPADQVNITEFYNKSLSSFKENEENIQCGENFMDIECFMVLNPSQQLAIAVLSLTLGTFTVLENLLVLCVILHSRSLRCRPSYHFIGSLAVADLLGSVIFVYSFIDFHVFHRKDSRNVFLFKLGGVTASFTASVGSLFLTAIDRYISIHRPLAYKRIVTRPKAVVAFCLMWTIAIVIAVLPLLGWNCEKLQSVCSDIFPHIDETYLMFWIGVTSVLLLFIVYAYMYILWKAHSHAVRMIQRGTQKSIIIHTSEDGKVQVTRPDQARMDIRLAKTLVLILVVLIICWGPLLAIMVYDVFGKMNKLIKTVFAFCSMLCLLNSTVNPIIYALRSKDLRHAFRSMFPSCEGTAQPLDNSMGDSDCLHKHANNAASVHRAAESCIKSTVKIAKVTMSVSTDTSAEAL

EC50 [1] [nM] | EC50 [2] [nM] | SMILES
366 | > 10000 | O=c1cc(Cc2ccc(OC(F)(F)F)cc2)c2cc(C(c3ccc(Cl)cc3)c3nccs3)ccc2[nH]1 (centres unmarked) [Compound 515, 6-((4-chlorophenyl)(thiazol-2-yl)methyl)-4-(4-(trifluoromethoxy)benzyl)quinolin-2(1H)-one]
27 | > 10000 | COC(=O)Cc1ccc(Nc2cc(=O)[nH]c3ccc(C(c4ccc(Cl)cc4)c4ccc(Cl)cc4)cc23)cc1 [Compound 124, Methyl [4-({6-[bis(4-chlorophenyl)methyl]-2-oxo-1,2-dihydroquinolin-4-yl}amino)phenyl]acetate]
342 | > 10000 | COc1ccc(C(O)(c2ccc3nccc(/C=C/c4ccccc4)c3c2)c2nccs2)cc1 (centres unmarked) [Compound 504, (E)-(4-methoxyphenyl)(4-styrylquinolin-6-yl)(thiazol-2-yl)methanol]
23 | > 10000 | COCCOc1cc(NC2CCN(S(=O)(=O)C(F)(F)F)CC2)c2cc(C(c3ccc(Cl)cc3)c3ccc(Cl)cc3)ccc2n1 [Compound 530, 6-(bis(4-chlorophenyl)methyl)-2-(2-methoxyethoxy)-N-(1-((trifluoromethyl)sulfonyl)piperidin-4-yl)quinolin-4-amine]
102 | > 10000 | CC(=O)NCCCCOc1cc(C(c2ccc(Cl)cc2)c2ccc(Cl)cc2)cc2c(NC3CCN(S(=O)(=O)C(F)(F)F)CC3)ccnc12 [Compound 543, N-(4-((6-(bis(4-chlorophenyl)methyl)-4-((1-((trifluoromethyl)sulfonyl)piperidin-4-yl)amino)quinolin-8-yl)oxy)butyl)acetamide, trifluoroacetic acid salt]
3 | > 10000 | O=c1cc(NC2CCN(CC(F)(F)F)CC2)c2cc(C(c3ccc(Cl)cc3)c3ccc(Cl)cc3)ccc2[nH]1 [Compound #77, 6-(bis(4-chlorophenyl)methyl)-4-((1-(2,2,2-trifluoroethyl)piperidin-4-yl)amino)quinolin-2(1H)-one]
140 | > 10000 | Clc1ccc(C(c2ccsc2)c2ccc3nccc(/C=C/c4ccccc4)c3c2)cc1 (centres unmarked) [Compound 509, 6-[(4-Chlorophenyl)(thiophen-3-yl)methyl]-4-[(E)-2-phenylethenyl]quinoline]
36 | > 42000 | COC/C=C/c1cc(C(c2ccc(Cl)cc2)c2ccc(Cl)cc2)cc2c(NC3CCN(S(=O)(=O)C(F)(F)F)CC3)cc(OC)nc12 [Compound 547, 6-(bis(4-chlorophenyl)methyl)-2-methoxy-8-(3-methoxyprop-1-en-1-yl)-N-(1-((trifluoromethyl)sulfonyl)piperidin-4-yl)quinolin-4-amine]
20 | > 14000 | O=c1cc(NC2CCN(S(=O)(=O)C(F)(F)F)CC2)c2cc(C(c3ccc(Cl)cc3)c3ccc(Cl)c(Cl)c3)ccc2[nH]1 (centres unmarked) [Compound #53, 6-[(4-chlorophenyl)(3,4-dichlorophenyl)methyl]-4-[[1-(trifluoromethane)sulfonylpiperidin-4-yl]amino]-1,2-dihydroquinolin-2-one]
157 | > 10000 | O=C(O)c1cccc(CN2CCC(Nc3cc(=O)[nH]c4ccc(C(c5ccc(Cl)cc5)c5ccc(Cl)cc5)cc34)CC2)c1 [Compound 129, 3-((4-((6-(bis(4-chlorophenyl)methyl)-2-oxo-1,2-dihydroquinolin-4-yl)amino)piperidin-1-yl)methyl)benzoic acid]
269 | 8960 | O=C(O)c1cccc(S(=O)(=O)N2CCC(Nc3cc(=O)[nH]c4ccc(C(c5ccc(Cl)cc5)c5ccc(Cl)cc5)cc34)CC2)c1 [Compound 84, 3-{[4-({6-[Bis(4-chlorophenyl)methyl]-2-oxo-1,2-dihydroquinolin-4-yl}amino)piperidin-1-yl]sulfonyl}benzoic acid]
1120 | > 10000 | CCOC(=O)CCCNc1cc(C(c2ccc(Cl)cc2)c2ccc(Cl)cc2)cc2c(NC3CCN(S(=O)(=O)C(F)(F)F)CC3)cc(=O)[nH]c12 [Compound 104, Ethyl 4-({6-[bis(4-chlorophenyl)methyl]-2-oxo-4-({1-[(trifluoromethyl)sulfonyl]-piperidin-4-yl}amino)-1,2-dihydroquinolin-8-yl}amino)butanoate]
22 | > 10000 | CCS(=O)(=O)N1CCC(Nc2cc(=O)[nH]c3ccc(C(c4ccc(Cl)cc4)c4ccc(Cl)cc4)cc23)CC1 [Compound #56, 6-(bis(4-chlorophenyl)methyl)-4-((1-(ethylsulfonyl)piperidin-4-yl)amino)quinolin-2(1H)-one]

The remaining lines, values behind:

SMILES | EC50 [1] [nM] | EC50 [2] [nM]
O=c1cc(Nc2ccc(CC(F)(F)F)cc2)c2cc(C(c3ccc(Cl)cc3)c3ccc(Cl)cc3)cc(Br)c2[nH]1 [Compound 93] | 15 | > 10000
CC(C)S(=O)(=O)N1CCC(Nc2cc(=O)[nH]c3ccc(C(c4ccc(Cl)cc4)c4nccs4)cc23)CC1 (centres unmarked) [Compound 40, 6-[(4-Chlorophenyl)(1,3-thiazol-2-yl)methyl]-4-({1-[(1-methylethyl)sulfonyl]piperidin-4-yl}amino)quinolin-2(1H)-one] | 204 | > 10000
O=C(CC(F)(F)F)N1CCC(Nc2cc(=O)[nH]c3ccc(C(c4ccc(Cl)cc4)c4ccc(Cl)cc4)cc23)CC1 [Compound 69, 6-[Bis(4-chlorophenyl)methyl]-4-{[1-(3,3,3-trifluoropropanoyl)piperidin-4-yl]amino}quinolin-2(1H)-one] | 10 | 4200
O=c1cc(/C=C/c2ccc(C(F)(F)F)cc2)c2cc(C(c3ccccc3)c3ccc(Cl)cc3)ccc2[nH]1 (centres unmarked) [Compound 33, 6-[(4-Chlorophenyl)(phenyl)methyl]-4-{(E)-2-[4-(trifluoromethyl)phenyl]-ethenyl}quinolin-2(1H)-one] | 1210 | > 10000
O=c1cc(NC2CCNCC2)c2cc(C(c3ccc(Cl)cc3)c3nccs3)ccc2[nH]1 (centres unmarked) [Compound 39, 6-((4-chlorophenyl)(thiazol-2-yl)methyl)-4-(piperidin-4-ylamino)quinolin-2(1H)-one] | 604 | > 10000
O=c1cc(/C=C/c2ccccc2)c2cc(C(c3ccc(Cl)cc3)c3ccc(Cl)cc3)ccc2[nH]1 [Compound 502] | 580 | > 10000
CS(=O)(=O)N1CCC(Nc2cc(=O)[nH]c3ccc(C(c4ccc(Cl)cc4)c4ccc(Cl)cc4)cc23)CC1 [Compound 63, 6-[Bis(4-chlorophenyl)methyl]-4-{[1-(methylsulfonyl)piperidin-4-yl]amino}quinolin-2(1H)-one] | 94 | 2660
O=c1cc(N2CCN(S(=O)(=O)C(F)(F)F)CC2)c2cc(C(c3ccc(Cl)cc3)c3nccs3)ccc2[nH]1 (centres unmarked) [Compound 35, 6-[(4-Chlorophenyl)(1,3-thiazol-2-yl)methyl]-4-{4-[(trifluoromethyl)sulfonyl]-piperazin-1-yl}quinolin-2(1H)-one] | 322 | > 10000
O=c1cc(NCC2CNC2)c2cc(C(c3ccc(Cl)cc3)c3nccs3)ccc2[nH]1 (centres unmarked) [Compound 43, 4-[(Azetidin-3-ylmethyl)amino]-6-[(4-chlorophenyl)(1,3-thiazol-2-yl)methyl]quinolin-2(1H)-one] | > 10000 | 
CC(C)(C)OC(=O)N1CC(CNc2cc(=O)[nH]c3ccc(C(c4ccc(Cl)cc4)c4nccs4)cc23)C1 (centres unmarked) [Compound 42, tert-Butyl 3-[({6-[(4-chlorophenyl)(1,3-thiazol-2-yl)methyl]-2-oxo-1,2-dihydroquinolin-4-yl}amino)methyl]azetidine-1-carboxylate] | 2330 | 
